Experiments:
Format in all cases: cell-based, mouse
[1] = tested on: marrow stromal cells; assay: Osteogenic differentiation of marrow stromal cells (marker not specified: ALP activity, osteocalcin mRNA, mineral formation)
Method: The purpose of the study was to identify other osteogenic and anti-adipogenic oxysterols based on the chemical structure of previously identified oxysterols. The ability of such candidate oxysterol molecules to induce the formation of osteoblastic cells in cultures of marrow stromal cells (which are progenitors of osteoblastic cells that make bone) were tested. In order to assess osteogenic differentiation of cells, one or more markers of osteogenic differentiation were measured in untreated cells and cells treated with the test oxysterols. These markers included: alkaline phosphatase activity, osteocalcin mRNA expression and mineral formation in cultures of marrow stromal cells. Activation of either one or more than one marker by a single or combination oxysterols is indicative of their osteogenic property.

[2] = tested on: osteocalcin mRNA; assay: Northern blotting for osteocalcin mRNA in M2-10B4 cells; conditions: for synergy with oxysterols in induction of osteocalcin: BMP 50 ng/ml with 22S+20S (SS, 2.5 μM)
Method: RNA isolation and Northern blot analysis—Following treatment of cells under appropriate experimental conditions, total RNA was isolated using the RNA isolation kit from Stratagene (La Jolla, Calif., U.S.A.). Total RNA ([…]) was run on a 1% agarose/formaldehyde gel and transferred to Duralon-UV membranes (Strategene, CA, U.S.A.) and cross-linked with UV light. The membranes were hybridized overnight at 60 degree C. with ^32P-labeled mouse osteocalcin cDNA probe, mouse lipoprotein lipase (LPL), mouse adipocyte protein 2 (aP^2) PCR-generated probes, human 28S or 18S rRNA probes obtained from Geneka Biotechnology (Montreal, Quebec, Canada) and Maxim Biotech (San Francisco, Calif., U.S.A.), respectively. The PCR products were generated using primer sets synthesized by Invitrogen (Carlsbad, Calif., U.S.A.) with the following specifications: mouse aP2 gene (accession no. M13261); sense (75-95) 5′-[…]-3′, antisense (362-383) 5′-[…]-3′, generating a PCR product of 309 base pairs. Mouse LPL (accession no. XM—134193); sense (1038-1058) 5′-[…]-3′, antisense (1816-1836) 5′-[…]-3′, generating a PCR product of 799 base pairs. The PCR products were gel-purified and sequenced by the UCLA sequencing core, showing the highest similarity to their respective GenBank entries. Following hybridization, the blots were washed twice at room temperature with 2×SSC+0.1% SDS, and then twice at 60 degree C. with 0.5×SSC+0.1% SDS, and exposed to X-ray film. The extent of gene induction was determined by densitometry.
After 4 and 8 days, total RNA from duplicate samples was isolated and analyzed for osteocalcin (Osc) and 28S rRNA expression by Northern blotting as described. FIG. 3E is a radiogram of Northern blotting for osteocalcin mRNA in M2 cells exposed to a control or combination of oxysterols for 4 or 8 days. FIG. 3F is a bar graph depicting the relative demsometric units of osteocalcin mRNA in M2 cells exposed to a control or combination of oxysterols for 4 -or 8 days. Data from densitometric analysis of the Northern blot is shown in (F) as the average of duplicate samples, normalized to 28S rRNA.
(§1) Next, a combination of 22R and 20S oxysterols (RS, 2.5 μM each) were added in the presence or absence of SC as indicated. After 3 days, ALP activity was measured as described earlier. […] (B) M2 cells were treated as described in (A) and after 10 days matrix mineralization in cultures was quantified by a ^45Ca incorporation assay as described earlier. […] (C) M2 cells were pretreated with 20 μM SC for 4 hours, followed by the addition of RS in the presence or absence of SC as described above. After 8 days, total RNA was isolated and analyzed for osteocalcin (Osc) and […] expression by Northern blotting as previously described. Data from densitometric analysis of the Northern blot is shown in (D) as the average of duplicate samples, normalized to 18S rRNA. (E) M2 cells at confluence were pretreated for 2 hours with control vehicle (C), or PLA2 inhibitors ACA (25 μM) and AACOCF3 (AAC, 20 μM), in osteogenic medium. Next, a combination of 22R and 20S oxysterols (RS, 2.5 μM) was added in the presence or absence of the inhibitors as indicated. After 3 days, ALP activity was measured as previously described. […] (F) M2 cells were treated as described in (E). After 10 days, matrix mineralization in cultures was quantified using a ^45Ca incorporation assay as previously described. Results from a representative of three experiments are shown, reported as the mean of quadruplicate determinations ±SD, normalized to protein concentration (p<0.01 for RS vs. RS+ACA and RS+AAC).
ALP activity was measured after 2 days, as described. […] (B) M2 cells were treated as described in (A). After 10 days, matrix mineralization in cultures was quantified using a ^45Ca incorporation assay as described. […] (C) M2 cells were treated under similar conditions as those described above. […]

[3] = tested on: M2-10B4 marrow stromal cells; assay: Matrix mineralization (45Ca incorporation assay, von Kossa staining) in M2-10B4 marrow stromal cells; conditions: for effect on oxysterol-induced mineralization: 22R+20S (RS), SC-560 10 μM, ACA 25 μM, AACOCF3 20 μM or PD98059 20 μM, 10 days
Method: (§2) Cells: M2-10B4 mouse marrow stromal cell line obtained from American Type Culture Collection (ATCC, Rockville, Md., U.S.A.) was derived from bone marrow stromal cells of a (C57BL/6J x C3H/HeJ) Fl mouse, and support human and murine myelopoiesis in long-term cultures (as per ATCC) and have the ability to differentiate into osteoblastic and adipocytic cells. Unless specified, these cells were cultured in RPMI 1640 containing 10% heat-inactivated FBS, and supplemented with 1 mM sodium pyruvate, 100 U/ml penicillin, and 100 U/ml streptomycin (all from Irvine Scientific).
Von Kossa and oil red O staining—Matrix mineralization in cell monolayers was detected by silver nitrate staining as previously described. Oil red O staining for detection of adipocytes was performed as previously described.
^45Ca incorporation assay—Matrix mineralization in cell monolayers was quantified using the ^45Ca incorporation assay as previously described.
After 14 days, mineralization was identified by a von Kossa staining, which appears black. FIG. 3C is a depiction of von Kossa staining of M2 cells exposed to various conditions.
After 14 days, matrix mineralization in cultures was quantified using a ^45Ca incorporation assay.
as §1
(A) M2 cells at confluence were pretreated for four hours with RPMI containing 1% FBS, followed by treatment with control vehicle or 5 μM 20S oxysterol for 1, 4, or 8 hours. Next total cell extracts were prepared and analyzed for levels of native or phosphorylated ERK (pERK) using specific antibodies as previously described. Data from a representative of four experiments are shown, each treatment shown in duplicate samples. (B) M2 cells at confluence were pretreated for 2 hours with control vehicle (C) or 20 μM PD98059 (PD) in osteogenic medium as previously described. Next, a combination of 22R and 20S oxysterols (RS, 5 μM each) were added to appropriate wells as indicated. After 10 days of incubation, matrix mineralization was quantified by the ^45Ca incorporation assay as previously described. […] (C) M2 cells at confluence were pretreated for 2 hours with 20 µM PD98059 (PD) in RPMI containing 5% FBS. Next, the cells were treated with control vehicle (C), 10 μM troglitazone (Tro), or 10 μM of 20S or 22S oxysterols, alone or in combination as indicated. After 10 days, adipocytes were visualized by oil Red O staining and quantified by light microscopy as previously described. […]

[4] = tested on: M2-10B4 marrow stromal cells; assay: Alkaline phosphatase (ALP) activity assay on whole cell extracts of M2-10B4 marrow stromal cells; conditions: for reversal of the effects of COX-1 and PLA2 inhibitors on oxysterol-induced alkaline phosphatase activity: 1 μM PGE2, 25 μM arachidonic acid, data not shown; for effect on oxysterol-induced alkaline phosphatase activity: 22R+20S (RS), pretreatment with SC-560 10 μM, ACA 25 μM, AACOCF3 20 μM or PD98059 20 μM, 3 days
Method: as §2
Cells were always treated at 90% confluence. […]
as §1, with “Results from a representative of three experiments are shown, reported as the mean of quadruplicate determinations ±SD, normalized to protein concentration (p<0.01 for RS vs. RS+ACA and RS+AAC).” left out

[5] = pretreatment, cyclopamine 1-10 μM, DKK-1 1 μg/ml

CS(=O)(=O)Nc1ccc([N+](=O)[O-])cc1OC1CCCCC1 [NS-398, reference compound]
inhibition of the osteogenic effects of oxysterol combinations ([1]; 22R+20S and 22S+20S, SC-560 1-20 μM, NS-398 20 μM (highest non-toxic dose)): negligible inhibitory effects

O=S(=O)(c1ccccc1)N(CC(F)(F)F)c1ccc(C(O)(C(F)(F)F)C(F)(F)F)cc1 [TO-901317, reference compound]
induction of osteocalcin gene expression ([2]; after 10 days): did not induce | induction of mineralization ([3]; after 10 days): did not induce | effect on alkaline phosphatase activity ([4]; 1-10 μM): dose-dependent inhibition

DKK-1: Wnt signaling inhibitor
effect on SS-induced osteocalcin mRNA expression [2, 5]: inhibited | effect on SS-induced mineralization [3, 5]: inhibited | effect on SS-induced alkaline phosphatase (ALP) activity [4, 5]: inhibited

COc1ccc(-n2nc(C(F)(F)F)cc2-c2ccc(Cl)cc2)cc1 [SC-560, reference compound]
effect on oxysterol-induced osteocalcin gene expression ([2]; 22R+20S (RS), SC-560 20 μM, 8 days, PD98059 (data not shown)): inhibited | effect on oxysterol-induced mineralization [3]: inhibited

CCCCC[C@H](O)/C=C/[C@H]1[C@H](O)CC(=O)[C@@H]1C/C=C\CCCC(=O)O [PGE2, prostaglandin E2, reference compound]
reversal of the effects of COX-1 and PLA2 inhibitors on oxysterol-induced alkaline phosphatase activity [4]: reversed

C[C@@H](CO)CCC[C@@H](C)[C@H]1CC[C@H]2[C@@H]3CC=C4C[C@@H](O)CC[C@]4(C)[C@H]3CC[C@]12C [26-hydroxycholesterol]
osteogenic property, alone or in combination with originally described oxysterols [1]: osteoinductive

CCCCCc1ccc(/C=C/C(=O)Nc2ccccc2C(=O)O)cc1 [ACA, reference compound]
effect on oxysterol-induced mineralization [3]: inhibited | effect on oxysterol-induced alkaline phosphatase activity [4]: inhibited

C[C@]12CC[C@@H]3c4ccc(O)cc4CC[C@H]3[C@@H]1CC[C@@H]2O [beta-estradiol, reference compound]
osteogenic properties [1]: did not have any osteogenic properties

CCCCC/C=C\C/C=C\C/C=C\C/C=C\CCCC(=O)O [arachidonic acid, reference compound]
reversal of the effects of COX-1 and PLA2 inhibitors on oxysterol-induced alkaline phosphatase activity [4]: reversed

CC(C)CCC[C@@H](C)[C@H]1CC[C@H]2[C@@H]3[C@H](O)C=C4C[C@@H](O)CC[C@]4(C)[C@H]3CC[C@]12C [7alpha-hydroxycholesterol, reference compound]
levels of osteocalcin mRNA relative to the control ([2]; 5 μM, eight days, M2-10B4): did not appear to significantly affect

CCCCC/C=C\C/C=C\C/C=C\C/C=C\CCCC(=O)C(F)(F)F [AACOCF3, reference compound]
effect on oxysterol-induced mineralization [3]: inhibited | effect on oxysterol-induced alkaline phosphatase activity [4]: inhibited

C[C@]12CC[C@H]3[C@@H](CCC4=C[C@H](O)CC[C@@H]43)[C@@H]1CC[C@@H]2O [estren, reference compound]
osteogenic properties [1]: did not have any osteogenic properties

BMP14: bone morphogenic protein 14
synergy with oxysterols in induction of osteocalcin ([2]; eight days): synergistic induction | synergy with oxysterols in induction of mineralization [3]: synergistically induced | synergy with oxysterols in induction of alkaline phosphatase activity [4]: synergistically induced

COc1cccc(-c2cc(=O)c3ccccc3o2)c1N [PD98059, reference compound]
effect on oxysterol-induced mineralization [3]: inhibited

B1: BMP7: bone morphogenic protein 7 (protein, UniProt P18075 293-431, looked up)
Bone morphogenetic protein 7: STGSKQRSQNRSKTPKNQEALRMANVAENSSSDQRQACKKHELYVSFRDLGWQDWIIAPEGYAAYYCEGECAFPLNSYMNATNHAIVQTLVHFINPETVPKPCCAPTQLNAISVLYFDDSSNVILKKYRNMVVRACGCH
synergy with oxysterols in induction of osteocalcin ([2]; eight days): synergistic induction | synergy with oxysterols in induction of mineralization [3]: synergistically induced | synergy with oxysterols in induction of alkaline phosphatase activity [4]: synergistically induced

From US20090220562A1, “Osteogenic and anti-adipogenic oxysterols” (priority 2005, published 2009)
